# Tested on: phospho-serine 2056 DNA-PK in HCT116 cells
# Test: DNA-PK phosphorylation at serine 2056 (cellular), ELISA in bleomycin-treated HCT116 cells
# Format: cell-based
# Settings: Homo sapiens, HCT-116, 6 h, cellular; HCT116 cells, 10 μM bleomycin, six hours; read-out: IC50 pDNA-PK
# Outline: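 After overnight seeding, HCT116 cells received compound with 10 μM bleomycin for 6 h; phospho-DNA-PK ELISA signals were scaled to total DNA-PKcs, DMSO serving as blank.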
row,Compound,IC50 [µM]
1,"COc1ccc([C@H](O)c2ccc(F)c(-c3ncnc4cc(N5CCOCC5)ccc34)c2)nn1 [Example 71, (R)-[4-Fluoro-3-(7-morpholin-4-yl-quinazolin-4-yl)phenyl]-(6-methoxypyridazin-3-yl)methanol]",0.5 to 5
2,"OC(c1ccc(F)c(-c2ncnc3cc(N4CCOCC4)ccc23)c1)c1nccnc1N1CCCC1 (stereo not shown) [Example 14, [4-Fluoro-3-(7-morpholin-4-yl-quinazolin-4-yl)phenyl]-(3-pyrrolidin-1-yl-pyrazin-2-yl)methanol]",0.5 to 5

# Results, then the compound that gave them:
row,IC50 [µM],Compound
1,0.5 to 5,"OC(c1ccc(F)c(-c2ncnc3cc(N4CCOCC4)ccc23)c1)c1cccnn1 (stereo not shown) [Example 65, [4-Fluoro-3-(7-morpholin-4-yl-quinazolin-4-yl)phenyl]-pyridazin-3-ylmethanol]"
2,0.5 to 5,"OC(c1ccc(F)c(-c2ncnc3cc(N4CCOCC4)ccc23)c1)c1ncccc1C(F)(F)F (stereo not shown) [Example 80, [4-Fluoro-3-(7-morpholin-4-yl-quinazolin-4-yl)-phenyl]-(3-trifluoro-methylpyridin-2-yl)-methanol]"
3,< 0.5,"Cc1nccnc1C(O)c1cc(-c2ncnc3cc(N4CCOCC4)ccc23)c(F)cc1F (stereo not shown) [Example 84, [2,4-Difluoro-5-(7-morpholin-4-yl-quinazolin-4-yl)-phenyl]-(3-methyl-pyrazin-2-yl)methanol]"

# Same assay, conditions: Homo sapiens, HCT-116, cellular DNA-PK phosphorylation at serine 2056, HCT116 cells; read-out: IC50 pDNA-PK
row,IC50 [µM],Compound
1,< 0.5,"OC(c1ccc(F)c(-c2ncnc3cc(N4CCOCC4)ccc23)c1)c1ncccc1Br (stereo not shown) [Example 478, (3-bromo-pyridin-2-yl)-[4-fluoro-3-(7-morpholin-4-yl-quinazolin-4-yl)-phenyl]methanol]"
2,0.5 to 5,"Cn1cnc2c(C(O)c3cc(-c4ncnc5cc(N6CCOCC6)ccc45)ccc3F)ncnc21 (stereo not shown) [Example 370, [2-Fluoro-5-(7-morpholin-4-yl-quinazolin-4-yl)-phenyl]-(9-methyl-9H-purin-6-yl)-methanol]"
3,< 0.5,"OC(c1ccc(F)c(-c2ncnc3cc(N4CCOCC4)ccc23)c1)c1ncccc1Cl (stereo not shown) [Example 465, (3-Chloro-pyridin-2-yl)-[4-fluoro-3-(7-morpholin-4-yl-quinazolin-4-yl)-phenyl]methanol]"
4,< 0.5,"OC(c1cc(-c2ncnc3cc(N4CCOCC4)ccc23)ccc1F)c1ncnc2sccc12 (stereo not shown) [Example 406, [2-Fluoro-5-(7-morpholin-4-yl-quinazolin-4-yl)-phenyl]thieno[2,3-d}-pyrimidin-4-yl-methanol]"
5,0.5 to 5,"OC(c1cc(-c2ncnc3cc(N4CCOCC4)ccc23)c(F)cc1F)c1nnc2ccccn12 (stereo not shown) [Example 379, [2,4-Difluoro-5-(7-morpholin-4-yl-quinazolin-4-yl)-phenyl]-[1,2,4]-triazolo[4,3-a]pyridin-3-ylmethanol]"
6,< 0.5,"COc1nccnc1C(O)c1cc(-c2ncnc3cc(N4CCOCC4)ccc23)c(F)cc1Cl (stereo not shown) [Example 468, [2-Chloro-4-fluoro-5-(7-morpholin-4-yl-quinazolin-4-yl)-phenyl]-(3-methoxy-pyrazin-2-yl)-methanol]"

# Same assay, conditions: Homo sapiens, HCT-116, phospho-serine 2056 DNA-PK, bleomycin-treated HCT116 cells; class symbols A-D; read-out: IC50 pDNA-PK
row,Compound,IC50 [µM]
1,"N#Cc1ccc(C(O)c2cc(-c3ncnc4cc(N5CCOCC5)ccc34)c(F)cc2Cl)nn1 (stereo not shown) [Example 118, 6-{[2-Chloro-4-fluoro-5-(7-morpholin-4-yl-quinazolin-4-yl)-phenyl]hydroxy-methyl}pyridazine-3-carbonitrile]",0.5 to 5
2,"COC(c1ccc(F)c(-c2ncnc3cc(N4CCOCC4)ccc23)c1)c1nccs1 (stereo not shown) [Example 177, 4-[2-Fluoro-5-(-methoxythiazol-2-ylmethyl)phenyl]-7-morpholin-4-yl-quinazoline]",10 to 30
3,"OCc1csc(C(O)c2cc(-c3ncnc4cc(N5CCOCC5)ncc34)c(F)cc2Cl)n1 (stereo not shown) [Example 141, [2-Chloro-4-fluoro-5-(7-morpholin-4-yl-pyrido[4,3-d}-pyrimidin-4-yl)-phenyl]-(4-hydroxymethyl-thiazol-2-yl)-methanol]",10 to 30
4,"OC(c1ccc(F)c(-c2ncnc3cc(N4CCOCC4)ccc23)c1)c1ccc(OC(F)F)nn1 (stereo not shown) [Example 121, (6-Difluoro-methoxy-pyridazin-3-yl)-[4-fluoro-3-(7-morpholin-4-yl-quinazolin-4-yl)-phenyl]methanol]",0.5 to 5
5,"OCCNc1nccnc1C(O)c1ccc(F)c(-c2ncnc3cc(N4CCOCC4)ccc23)c1 (stereo not shown) [Example 106, 2-(3-{[4-fluoro-3-(7-morpholin-4-yl-quinazolin-4-yl)-phenyl]hydroxy-methyl}pyrazin-2-yl-amino)ethanol]",5 to 10
6,"CC(C)n1cc(C(O)c2ccc(F)c(-c3ncnc4cc(N5CCOCC5)ccc34)c2)cn1 (stereo not shown) [Example 197, [4-Fluoro-3-(7-morpholin-4-yl-quinazolin-4-yl)-phenyl]-(1-isopropyl-1 H-pyrazol-4-yl)-methanol]",5 to 10

# Now from value to compound:
row,IC50 [µM],Compound
1,0.5 to 5,"OCCOc1ccc(C(O)c2cc(-c3ncnc4cc(N5CCOCC5)ccc34)c(F)cc2Cl)nn1 (stereo not shown) [Example 116, 2-(6-{[2-Chloro-4-fluoro-5-(7-morpholin-4-yl-quinazolin-4-yl)-phenyl]hydroxy-methyl}pyridazin-3-yl-oxy)ethanol]"
2,0.5 to 5,"OC(c1ccc(F)c(-c2ncnc3cc(N4CCOCC4)sc23)c1)c1nccs1 (racemic) [Example 144, [4-Fluoro-3-(6-morpholin-4-yl-thieno[3,2-d}-pyrimidin-4-yl)-phenyl]thiazol-2-yl-methanol]"
3,10 to 30,"COC(=O)COc1ccc(C(O)c2cc(-c3ncnc4cc(N5CCOCC5)ccc34)c(F)cc2Cl)nn1 (stereo not shown) [Example 114, (6-{[2-Chloro-4-fluoro-5-(7-morpholin-4-yl-quinazolin-4-yl)-phenyl]hydroxy-methyl}pyridazin-3-yl-oxy)acetic acid methyl ester]"
4,10 to 30,"OCCOc1nccnc1C(O)c1ccc(F)c(-c2ncnc3cc(N4CCOCC4)ccc23)c1 (stereo not shown) [Example 105, 2-(3-{[4-fluoro-3-(7-morpholin-4-yl-quinazolin-4-yl)-phenyl]hydroxy-methyl}pyrazin-2-yl-oxy)ethanol]"

# Same assay, conditions: Homo sapiens, HCT-116, phospho-serine 2056 DNA-PK, bleomycin-treated HCT116 cells; read-out: IC50 pDNA-PK
row,Compound,IC50 [µM]
1,"Cn1c(C(C(N)=O)c2cc(-c3ncnc4cc(N5CCOCC5)ccc34)c(F)cc2Cl)cccc1=O (stereo not shown) [Example 312, 2-[2-Chloro-4-fluoro-5-(7-morpholin-4-yl-quinazolin-4-yl)-phenyl]-2-(1-methyl-6-oxo-1,6-dihydro-pyridin-2-yl)-acetamide]",10 to 30
2,"Oc1ncnc(C(O)c2cc(-c3ncnc4cc(N5CCOCC5)ccc34)ccc2Cl)c1Cl (stereo not shown) [Example 330, 5-Chloro-6-{[2-chloro-5-(7-morpholin-4-yl-quinazolin-4-yl)-phenyl]hydroxy-methyl}pyrimidin-4-ol]",10 to 30
3,"Cc1ncc(C(O)c2ccc(F)c(-c3ncnc4cc(N5CCOCC5)ccc34)c2)nc1C (stereo not shown) [Example 314, (5,6-Dimethyl-pyrazin-2-yl)-[4-fluoro-3-(7-morpholin-4-yl-quinazolin-4-yl)-phenyl]methanol]",0.5 to 5
4,"COc1ccc(C(C(N)=O)c2cc(-c3ncnc4cc(N5CCOCC5)ccc34)ccc2Cl)nn1 (stereo not shown) [Example 310, 2-[2-Chloro-5-(7-morpholin-4-yl-quinazolin-4-yl)-phenyl]-2-(6-methoxy-pyridazin-3-yl)acetamide]",10 to 30
5,"OC(c1ccc(F)c(-c2ncnc3cc(N4CCOCC4)ccc23)c1)c1nncc2ccoc12 (stereo not shown) [Example 335, [4-Fluoro-3-(7-morpholin-4-yl-quinazolin-4-yl)-phenyl]furo[2,3-d}-pyridazin-7-yl-methanol]",< 0.5

# Results, then the compound that gave them:
row,IC50 [µM],Compound
1,< 0.5,"OC(c1ccc(F)c(-c2ncnc3cc(N4CCOCC4)ccc23)c1)c1nccc2ccoc12 (stereo not shown) [Example 328, [4-Fluoro-3-(7-morpholin-4-yl-quinazolin-4-yl)-phenyl]furo[2,3-c]-pyridin-7-ylmethanol]"
2,0.5 to 5,"Cc1nccnc1C(C(N)=O)c1cc(-c2ncnc3cc(N4CCOCC4)ccc23)c(F)cc1Cl (stereo not shown) [Example 324, 2-[2-Chloro-4-fluoro-5-(7-morpholin-4-yl-quinazolin-4-yl)-phenyl]-2-(3-methyl-pyrazin-2-yl)-acetamide]"
3,10 to 30,"NC(=O)c1cncc(C(C(N)=O)c2ccc(F)c(-c3ncnc4cc(N5CCOCC5)ccc34)c2)n1 (stereo not shown) [Example 292, 6-{Carbamoyl-[4-fluoro-3-(7-morpholin-4-yl-quinazolin-4-yl)-phenyl]methyl}-pyrazine-2-carboxylic acid amide]"
4,0.5 to 5,"CNC(=O)C(c1cc(-c2ncnc3cc(N4CCOCC4)ccc23)c(F)cc1Cl)c1nccnc1OC (stereo not shown) [Example 229, 2-[2-Chloro-4-fluoro-5-(7-morpholin-4-yl-quinazolin-4-yl)-phenyl]-2-(3-methoxypyrazin-2-yl)-N-methyl-acetamide]"
5,5 to 10,"COc1nccnc1C(C(N)=O)c1cc(-c2ncnc3cc(N4CCOCC4)ccc23)ccc1F (stereo not shown) [Example 316, 2-[2-Fluoro-5-(7-morpholin-4-yl-quinazolin-4-yl)-phenyl]-2-(3-methoxy-pyrazin-2-yl)acetamide]"
6,0.5 to 5,"Cc1cc(C(O)c2cc(-c3ncnc4cc(N5CCOCC5)ccc34)c(F)cc2Cl)n(C)c(=O)c1 (stereo not shown) [Example 339, 6-{[2-Chloro-4-fluoro-5-(7-morpholin-4-yl-quinazolin-4-yl)-phenyl]hydroxy-methyl}-1,4-dimethyl-1H-pyridin-2-one]"

# Same assay, conditions: cellular DNA-PK phosphorylation at serine 2056, HCT116 cells; read-out: IC50 pDNA-PK
row,IC50 [µM],Compound
1,< 0.5,"Cn1c(C(O)c2ccc(F)c(-c3ncnc4cc(N5CCOCC5)ccc34)c2)cccc1=O (stereo not shown) [Example 376, 6-{[4-Fluoro-3-(7-morpholin-4-yl-quinazolin-4-yl)-phenyl]hydroxy-methyl}-1-methyl-1H-pyridin-2-one (Ena 1)]"

# Same assay, conditions: phospho-serine 2056 DNA-PK, bleomycin-treated HCT116 cells; class symbols A-D; read-out: IC50 pDNA-PK
row,IC50 [µM],Compound
1,10 to 30,"Cc1nc(C(O)c2cnc(F)c(-c3ncnc4cc(N5CCOCC5)ncc34)c2)sc1C (stereo not shown) [Example 203, (4,5-Dimethyl-thiazol-2-yl)-[6-fluoro-5-(7-morpholin-4-yl-pyrido[4,3-d}-pyrimidin-4-yl)-pyridin-3-yl]-methanol]"

# From patent publication US11065253B2, “Arylquinazolines” (Merck Patent GmbH, priority 2013, dated 2021)
